“Also recorded” adds a separate entry of the source.
What was measured:
[1] = system: Keap1; assay: HMOX1 induction after Keap1 silencing (shRNA); type: cell-based, human; details: NHLF cells, FIG. 6
Protocol: Normal human lung fibroblasts were plated in a 12-well tissue culture dish at 16,000 cells/well and allowed to attach overnight. Regular medium was then replaced with 200 μl of fresh growth medium containing 8 μg/ml hexadimethrine bromide (polybrene). Lentiviral transduction particles were then added in the following amounts: Control shRNA (1.1×10^7 TU/ml, Sigma, cat# SHC002V), 15 μl for an MOI of 10; KEAP-1 shRNA (6.3×10^6 TU/ml, Sigma, cat# SHCLNV-TRCN0000046092), 63 μl for an MOI of 20. After 4 hours in the cell culture incubator, another 200 μl of growth medium was added on top of the original volume. Cells were replenished the next day with fresh complete growth medium and were allowed to recover for 24 hours, after which selection medium was applied (complete medium with 1 μg/ml puromycin).
Another method of testing the role of the Nrf2 regulatory pathway on compound activity is to determine the effect of silencing Keap1 on HMOX1 gene expression. It is known that deleting Keap1 will result in the induction of Nrf2 dependent genes but not, to any significant degree, HMOX1. The proposed explanation for this observation is that HMOX1 requires the concomitant derepression of Bach1 activity and that this event is more dependent on active processes (e.g., heme binding, changes in redox potential of the cell, phosphorylation of Bach1, etc.). We therefore tested the ability of Compound 13 and tool compounds to induce HMOX1 in the presence of silencing of Keap1 in normal human lung fibroblasts.
Normal human lung fibroblasts were tested with DMSO, CoPP, Compound 13, and two derivatives including Compound 4 and Compound 8. An electrophile, Compound 1, was also included in the test set. […] On the other hand, induction of HMOX1 by the electrophile Compound 1 was inhibited.

[2] = Compound levels in rat blood after oral gavage (LC-MS); type: in vivo; details: rats
Protocol: (§1) Next, selected Bach1 modulators were tested for in vivo function. […] Rats were dosed with 5 mg/kg of compound by oral gavage. Compound levels in blood were determined by LC-MS (left panel). […] In a second experiment, Compound 8 activity was tested by determining the amount of HMOX1 mRNA induced in rat blood. Animals were dosed by oral gavage and blood drawn at the indicated times.

[3] = system: rat HMOX1 mRNA; assay: HMOX1 mRNA induction in rat blood after oral gavage; type: in vivo; details: rats, oral gavage 5 or 25 mg/kg, over 5 hours, FIG. 11B
Protocol: as §1

[4] = system: HMOX1; assay: mRNA expression (Quantigene Plex) in NHLF cells: HMOX1; type: cell-based, human; details: mRNA normalized to GAPDH, above DMSO treated cells
Protocol: (§2) Secondary growth of NHLF cells were used for all assays. Cell were thawed and then placed into culture in T225 flasks. The cells were grown to 80% confluency and harvested by washing once with HEPES buffered saline solution and then trypsinizing. Equal numbers (7×10^3 cells per well) of NHLF cells were plated in 96 well tissue culture plates (Corning). Cells were incubated overnight in FGM-2 medium prior to exposure to compound. Cells were treated with either DMSO or a compound as described below for 6 h. Preparation of cell lysates was carried out according to instructions using the Quantigene Reagent system 2.0 protocol (Panomics). mRNA induction was detected from cell lysate using the Quantigene Plex 2.0 Assay Kit (Panomics) on the Luminex platform (BIO-RAD). Expression of GAPDH mRNA was used as the internal control for the Quantigen Plex 2.0 Assay. The data in Tables 5 and 6 represents the fold change of target mRNA expression, normalized to control values, above DMSO treated cells.

[5] = system: NQO1; assay: mRNA expression (Quantigene Plex) in NHLF cells: NQO1; type: cell-based, human; details: mRNA normalized to GAPDH, above DMSO treated cells
Protocol: as §2

[6] = system: TXNRD1; assay: mRNA expression (Quantigene Plex) in NHLF cells: TXNRD1; type: cell-based, human; details: mRNA normalized to GAPDH, above DMSO treated cells
Protocol: as §2

[7] = system: HSPA6; assay: mRNA expression (Quantigene Plex) in NHLF cells: HSPA6; type: cell-based, human; details: mRNA normalized to GAPDH, above DMSO treated cells
Protocol: as §2

[8] = system: ICAM; assay: mRNA expression (Quantigene Plex) in NHLF cells: ICAM; type: cell-based, human; details: mRNA normalized to GAPDH, above DMSO treated cells
Protocol: as §2

[9] = system: ATF4; assay: mRNA expression (Quantigene Plex) in NHLF cells: ATF4; type: cell-based, human; details: Table 5, 6 h, mRNA normalized to GAPDH, above DMSO treated cells
Protocol: as §2

[10] = system: GADD45A; assay: mRNA expression (Quantigene Plex) in NHLF cells: GADD45A; type: cell-based, human; details: mRNA normalized to GAPDH, above DMSO treated cells
Protocol: as §2

[11] = system: NHLF cells; assay: ROS measurements (H2DCF-DA imaging); type: cell-based, human; details: 1 hr, cell-by-cell imaging, FIG. 3A/3B
Protocol: Secondary growth of NHLF cells were used for all assays. Cells were cultured as above. Cells were plated into 384-well BD-Optilux Plates at 2,000 cells/well and cultured overnight at 37° C. and 5% CO2. The following day, cell were washed and 2,7-dihydrodichlorofluorescin diacetate (H2DCF-DA), 10 μM ferric ammonium citrate (FAC), and Hoechst stain were added to cells for 30 min. The cells were washed once with PBS to remove any H2DCF-DA not taken up by cells. Test compounds were prepared in FBM-2 media at the desired concentrations. The plates and stain-treated cells were incubated with test compounds for 1 hr at 37° C. and 5% CO2. Following the incubation period, ROS generation was determined by imaging the cells on a GE INcell 1000 imager (Hoechst Ex. 360 Em. 535; H2DCF-DA 488 Ex. 480 Em. 535). ROS levels were determined and quantified using GE IN Cell Analyzer Software.
In addition to gene profiling, the requirement for ROS generation or chemical reactivity was tested. ROS generation was measured using an automated imaging technique. Compound 13 as well as two other compounds that were found in the screening set were tested in this experiment. Untreated NHLF cells, NHLF cells treated with the HMOX1 inducer CoPP (a negative control), and NHLF cells treated with curcumin or celestrol (positive controls) were included as controls. […] Further experiments were also conducted on chemical derivatives of Compound 13. In those experiments, all compounds tested were found not to induce an elevation of ROS levels in the cell (FIG. 3B). Thus, Compound 13 and related compounds represent a class of agents that elevate HMOX1 production without elevating ROS production.

[12] = system: human Bach1; assay: MARE controlled luciferase reporter gene assay in HepG2 cells with or without Bach1 expression; type: cell-based; details: transient transfection, with or without Bach1 expressing plasmid, FIG. 7
Protocol: The ability of Compound 13 to act in a manner similar to CoPP provides evidence for the hypothesis that Bach1 activity is being modulated by the compounds. […] To that end, expression vectors were prepared which contained the HMOX1 mARE promoter element recognized by both Bach1 and Nrf2. This element was placed in control of the reporter gene luciferase. Under conditions of transient transfection of HepG2 cells, the reporter has a low level of basal activity due to the relative ratio of Bach1 and Nrf2 found in the cell. Co-transfection with a Bach1 expressing plasmid leads to repression of luciferase activity. Therefore, one can test whether the compounds can increase the level of luciferase in the cells, thus overcoming Bach1 repression. […] Thus, the tested compound is able to overcome suppression by additional Bach1.

[13] = system: NHLF cells; assay: Cytoprotection of cisplatin (CDDP)-treated NHLF cells (propidium iodide staining); type: cell-based; details: NHLF cells, compound 24 hours prior to cisplatin exposure, FIG. 8
Protocol: A key outcome of Bach1 derepression and Nrf2 activation are the induction of cytoprotective genes. A method to test such cytoprotection is to assess the ability of a compound to protect normal human cells such as lung fibroblasts from toxicity due to cisplatin exposure. A model of cellular cytoprotection was established whereby normal human lung fibroblasts were treated with Bach1 modulators and then subsequently exposed to cisplatin. NHLF cells are very sensitive to cisplatin exposure; following a dose of 200 uM cisplatin, >90% of NHLF cells are propidium iodide positive, a measure of cell death.

oral bioavailability ([2]; oral gavage, FIG. 11) | Structure (SMILES) | HMOX1 induction in the presence of Keap1 silencing [1] | compound levels in blood ([2]; 5 mg/kg (legend: 5 or 25 mg/kg) oral gavage, LC-MS, FIG. 11A) | HMOX1 mRNA induced in rat blood [3] | HMOX1 (fold induction) ([4]; Table 5, 6 h) | HMOX1 (fold induction) ([4]; Table 6, 6 h) | NQO1 (fold induction) ([5]; Table 5, 6 h) | NQO1 (fold induction) ([5]; Table 6, 6 h) | TXNRD1 (fold induction) ([6]; Table 5, 6 h) | TXNRD1 (fold induction) ([6]; Table 6, 6 h) | HSPA6 (fold induction) ([7]; Table 5, 6 h) | HSPA6 (fold induction) ([7]; Table 6, 6 h) | ICAM (fold induction) ([8]; Table 5, 6 h) | ICAM1 (fold induction) ([8]; Table 6, 6 h) | ATF4 (fold induction) [9] [fold induction] | GADD45A (fold induction) ([10]; Table 5, 6 h) | GADD45A (fold induction) ([10]; Table 6, 6 h) | ROS production (in words) [11] | luciferase activity of HMOX1 mARE reporter [12] | protection against cisplatin toxicity [13]
orally bioavailable | COCCNC(=O)c1ccc2c(c1)nc(Nc1nc3ccc(OC(F)(F)F)cc3s1)n2C [Compound 8, 1-Methyl-2-(6-trifluoromethoxy-benzothiazol-2-ylamino)-1H-benzoimidazole-5-carboxylic acid (2-methoxy-ethyl)-amide] | unaffected in their ability to induce HMOX1 in the presence of Keap1 silencing; also recorded: behaves similarly to CoPP induction | micromolar levels; also recorded: present in blood sample following oral dosing | able to induce HMOX1 mRNA in rat blood in a time and dose-dependent manner; also recorded: dose-dependent induction of rat HMOX1 mRNA in blood samples | – | – | – | – | – | – | – | – | – | – | – | – | – | – | – | –
– | C=Cc1c(C)c2cc3[nH]c(cc4nc(cc5nc(cc1[nH]2)C(C)=C5CCC(=O)[O-])C(CCC(=O)[O-])=C4C)c(C)c3C=C.[Co+2] [CoPP, Cobalt protoporphyrin IX, reference compound] | unaffected in their ability to induce HMOX1 in the presence of Keap1 silencing | – | – | 48 | 49.64 | 3.5 | 4.22 | 2.7 | 2.39 | 0.9 | 0.86 | 1.1 | 0.56 | 0.85 | 1.02 | 1.18 | did not | able to induce luciferase activity in the presence or absence of Bach1 protein expression; also recorded: can overcome this repression | protect the cells from CDDP-mediated toxicity
